Like-named read-outs stand apart in the source and are kept apart here.
Tests used:
Type in all cases: in vivo, human
[1] = Phase 1 FIH study Part 4: plasma pharmacokinetics in patients with stable schizophrenia
Procedure: Part 4 was a double-blind, weekly single dosing, parallel group design in patients with stable schizophrenia.
Participants were randomly assigned 2:1 to receive either Compound (I) or placebo. For the participants receiving Compound (I), a loading dose was administered on Day 1, and a maintenance dose, at half the initial dose, on Days 8, 15, and 22. Participants in the placebo group received placebo on all study dosing days.
Plasma and urine concentrations of Compound (I) and urine concentrations of cortisol and 6β-hydroxycortisol were measured by high performance liquid chromatography with tandem mass spectrometry. One 4 mL blood sample was collected per scheduled assessment. For participants receiving placebo, blood samples were analyzed only at pre-dose and around the time Cmax occurred (as emerging from the measurements of the first dose group) to ensure that no additional participants could have been on active treatment. Serial urine samples were collected for Part 1 cohorts 1-5 and Part 2 cohorts 1-4. Urine samples for participants receiving placebo were not analyzed. Urine samples were collected for the determination of cortisol and 6β-hydroxycortisol for Part 2 cohorts 1-4 and for all patients in Part 4. Samples for participants randomized to placebo were analyzed for these parameters.
Pharmacokinetic parameters were determined from the concentration-time profiles for all evaluable participants. Actual sampling times were used in all computations. pharmacokinetic parameters were calculated using non-compartmental analysis using Phoenix WinNonLin v8.0 or SAS v 9.4.
One participant in the 160/80 mg Compound (I) cohort in Part 4 (MRD study with patients with stable schizophrenia) missed the Day 15 dose. Pharmacokinetic concentrations for Day 22 for this participant were excluded from the mean plasma-concentration time profile and associated pharmacokinetic parameters were excluded from statistical analysis.
One participant in the 160/80 mg Compound (I) cohort in Part 4 (MRD study with patients with stable schizophrenia) terminated the study following dosing on Day 1. The participant's PK parameters were excluded from statistical analysis.
Another participant in the 160/80 mg Compound (I) cohort in Part 4 (MRD study with patients with stable schizophrenia) terminated the study following dosing on Day 22. Accordingly, all PK parameters for the participant other than tmax, Cmax, observed plasma concentration at the end of a dosing interval, AUC24, AUC48, and AUC96 were excluded from summary and statistical analysis.

[2] = tested on: ventral striatum activation; assay: fMRI BOLD ventral striatum activation in the MID Reward Task
Excerpt: After a break, subjects took the second block that comprised a battery of imaging tests; namely, brain perfusion using non-contrast arterial spin labeling MRI and fMRI scans which monitor changes in blood oxygen level-dependent (BOLD) signal. The fMRI was run in resting state without a task (resting state fMRI) and with 2 tasks (2-task fMRI) using the monetary incentive delay (MID) Reward Task and a Set-Shifting Task. After a break, subjects took the third block which comprised the Effort Expenditure for Rewards Task and the Empathic Accuracy Task. Subjects also received the Positive and Negative Syndrome Scale (PANSS), the Brief Negative Syndrome Scale (BNSS), and the Clinical Global Impression (CGI) Scales (CGI-Severity and CGI-Improvement) as a part of the PD assessment.
The BOLD signal in the average of the left and right ventral striatum activation in the MID Reward Task 3.5 h post-dose on Day 1 and the BACS composite score on Day 14 were the primary PD measures.
The observed BOLD signal was summarized (N, mean, median, SD, minimum, and maximum) by treatment (Compound (I) (overall and by dose) and placebo) and time. The BACS composite score was summarized for baseline, post-dose, and change from baseline by treatment, dose, and time.
Each of the primary PD measures was analyzed using a Bayesian normal linear model with effects for sequence, period, treatment, time (as a categorical variable), the treatment-by-time interaction, subject within treatment sequence, and baseline (for BACS only). For the BOLD fMRI, the observed value was the response variable in the model. For the BACS, the observed and the change from baseline were modeled separately. Missing values were not imputed and were not included in the model under a missing at random assumption. A diffuse normal distribution with mean zero and variance 106 was used as a prior for the regression coefficients and a diffuse inverse gamma with shape and scale parameters of 0.01 for the residual variance.
The criteria for a positive result at the IA was 70% posterior probability (or greater) of a difference between Compound (I) and placebo >0.09 in ventral striatum activation in the MID fMRI at 3.5 h post-dose on Day 1 or 70% (or greater) posterior probability of a difference between Compound (I) and placebo >2 points in the BACS composite score at Day 14.

[3] = Phase 2 crossover study: safety in subjects with stable schizophrenia
Excerpt: The safety analysis set consisted of all subjects who were enrolled and received at least 1 dose of study drug. Safety measurements included adverse events, physical examinations, vital signs, clinical laboratory evaluations, ECGs, and C-SSRS.

[4] = stable schizophrenia, oral, 160/80 mg, Day 22, N 14

**Q.** With `C[C@H](NC(=O)Cn1nnc2ccccc2c1=O)c1ccc(OC(F)(F)F)cc1` [Compound (I), (S)-2-(4-oxobenzo[d][1,2,3]triazin-3(4H)-yl)-N-(1-(4-(trifluoromethoxy)phenyl)ethyl)acetamide] as the compound, how does the “steady-state mean t1/2z” value ([1]; Part 4 MRD, schizophrenia participants) read?
**A.** 334 h

**Q.** What about the “peak systemic exposure lower in schizophrenia participants compared with healthy participants” value ([1]; Part 4 vs healthy) of the same compound?
**A.** 23-30%

**Q.** What about the “total systemic exposure lower for schizophrenia participants compared with healthy participants” value ([1]; Part 4 vs healthy) of the same compound?
**A.** 22-27%

**Q.** And the Cmax ([1]; human, plasma, oral, Part 4 MRD, 160/80 mg, up to 168 h post-dose, read-out: Mean Cmax (SD))?
**A.** 1270 ng/mL

**Q.** And the Tmax ([1]; human, plasma, oral, Part 4 MRD, schizophrenia patients, read-out: median tmax)?
**A.** 1.8 h

**Q.** And the AUC(0-t) ([1]; human, plasma, po, stable schizophrenia, oral, 160/80 mg, Day 1, N 15)?
**A.** 149 µg·h/mL

**Q.** What about the AUC ([1]; human, plasma, po, stable schizophrenia, oral, 160/80 mg, Day 1, N 15, read-out: AUC24 (mean)) of the same compound?
**A.** 20.4 µg·h/mL

**Q.** What about the AUC ([1]; human, plasma, po, stable schizophrenia, oral, 160/80 mg, Day 1, N 15, read-out: AUC96 (mean)) of the same compound?
**A.** 90.4 µg·h/mL

**Q.** What about the AUC ([1]; human, plasma, po, stable schizophrenia, oral, 160/80 mg, Day 1, N 15, read-out: AUCτ (mean)) of the same compound?
**A.** 149 µg·h/mL

**Q.** And the Cmax ([1]; human, plasma, po, stable schizophrenia, oral, 160/80 mg, Day 1, N 15, read-out: Cmax (mean))?
**A.** 1270 ng/mL

**Q.** What about the Tmax ([1]; human, plasma, po, stable schizophrenia, oral, 160/80 mg, Day 1, N 15, read-out: tmax (median)) of the same compound?
**A.** 2 h

**Q.** And the AUC(0-t) ([1]; human, plasma, po, stable schizophrenia, oral, 160/80 mg, Day 22, N 14)?
**A.** 660 µg·h/mL

**Q.** And the AUC ([1]; human, plasma, po, stable schizophrenia, oral, 160/80 mg, Day 22, N 14, read-out: AUC24 (mean))?
**A.** 35.5 µg·h/mL

**Q.** What about the AUC ([1]; human, plasma, po, stable schizophrenia, oral, 160/80 mg, Day 22, N 14, read-out: AUC96 (mean)) of the same compound?
**A.** 140 µg·h/mL

**Q.** What about the AUC ([1]; human, plasma, po, stable schizophrenia, oral, 160/80 mg, Day 22, N 14, read-out: AUCτ (mean)) of the same compound?
**A.** 227 µg·h/mL

**Q.** What about the Cmax ([1]; human, plasma, po, stable schizophrenia, oral, 160/80 mg, Day 22, N 14, read-out: Cmax (mean)) of the same compound?
**A.** 1880 ng/mL

**Q.** And the Tmax ([1]; human, plasma, po, stable schizophrenia, oral, 160/80 mg, Day 22, N 14, read-out: tmax (median))?
**A.** 1.8 h

**Q.** What about the Vd/F ([1]; human, plasma, stable schizophrenia, oral, 160/80 mg, Day 22, N 14, read-out: Vz/F (mean)) of the same compound?
**A.** 172 L

**Q.** What about the “CL/F (mean)” value [1, 4] of the same compound?
**A.** 365.5 mL/h

**Q.** What about the “Cav,ss (mean)” value [1, 4] of the same compound?
**A.** 1352.6 ng/mL

**Q.** What about the “Ctrough (mean)” value [1, 4] of the same compound?
**A.** 950.4 ng/mL

**Q.** What about the “t1/2z (mean)” value [1, 4] of the same compound?
**A.** 333.8 h

**Q.** What about the “ventral striatal activation relative to placebo” value ([2]; Day 1) of the same compound?
**A.** decrease in ventral striatal activation

**Q.** What about the “posterior mean (SD) for the difference to placebo, fMRI BOLD endpoint” value (from here on “posterior mean (SD) for the difference”) ([2]; Day 1, 40 mg) of the same compound?
**A.** −0.1 (0.21)

**Q.** What about the “posterior mean (SD) for the difference” value ([2]; Day 1, 160 mg) of the same compound?
**A.** −0.15 (0.14)

**Q.** What about the “posterior mean (SD) for the difference” value ([2]; Day 1, overall) of the same compound?
**A.** −0.14 (0.11)

**Q.** What about the “ventral striatal activation relative to placebo” value ([2]; Day 14) of the same compound?
**A.** dose-related increase in activation relative to placebo

**Q.** What about the “deaths or serious adverse events” value ([3]; phase 2) of the same compound?
**A.** no deaths or serious adverse events

**Q.** What about the “discontinuation of study medication due to TEAEs” value ([3]; phase 2) of the same compound?
**A.** No subjects discontinued study medication due to TEAEs

**Q.** And the safety and tolerability ([3]; phase 2, single doses 40 or 160 mg, add-on to antipsychotics)?
**A.** safe and well-tolerated
